How the values were obtained:
[1] = target: PDE1; test: PDE assay, PDE1 enzyme solution from rat ventricle; format: biochemical, SD rat; conditions: substrate about 12 nM [3H]-cGMP and 1 μM cGMP
Protocol: Ventricle was excised from SD rat anesthetized with sodium pentobarbital (Nihon SLC, about 300 g), and washed with 100 ml of ice-cold saline 3 times. After the tissues were cut in approximately 1 g, it was frozen by liquid nitrogen, and stored at −80° C.
To about 5 g of this tissue sample was added 16 ml of an ice-cold homogenization buffer I, and the resultant mixture was homogenized by Polytron homogenizer for 3 minutes. The homogenate was centrifuged at 8000 rpm, at 4° C. for 20 minutes, and the obtained supernatant was further centrifuged by an ultracentrifuge at 50000 rpm, at 4° C. for 60 minutes. The resultant supernatant was stored at 4° C. […]
Subsequently, the eluted fractions were used as an enzyme solution for PDE assay. […] (final concentration of 1 mM) or calcium chloride (final concentration of 2 mM) and calmodulin (40 unit s/ml), and cGMP-hydrolyzing activity was measured.
For these PDE1 containing fractions, cGMP hydrolyzing activities were analyzed in the presence of E4021 (100 nM), PDE5 specific inhibitor, it was shown that the cGMP-hydrolyzing activities in these fractions were not inhibited by E4021. […]
Further, in the presence or absence of unlabeled cGMP, cAMP-PDE activities were measured for each of the fractions. […]
Still further, in the presence of rolipram (10 μm), the PDE4 specific inhibitor, cAMP hydrolyzing activities were measured for each of the fractions. […]

[2] = target: T1, PDE5 (Canis lupus familiaris, UniProt O77746); test: PDE assay, PDE5 enzyme solution from canine lung; format: biochemical; conditions: substrate about 12 nM [3H]-cGMP and 1 μM cGMP
T1 construct: These were used as a PDE5 enzyme solution for PDE assay; tissue Oriental Yeast (animals); host or cells: canine lung, soluble fraction, DEAE Sepharose fractions
Protocol: In the same manner as in (1-4) above, the supernatant obtained from the homogenate of canine lung tissue was applied to chromatography under FLPC system, to collect eluted fractions of 2 ml each.
Subsequently, the eluted fractions were used as an enzyme solution for PDE assay, and cGMP-hydrolyzing activity was measured for respective fractions, in the presence or absence of E4021, the PDE5 specific inhibitor.
Further, for examining contamination of PDE1, which is adjacently eluted, cGMP-hydrolyzing PDE activity of the respective fractions were measured in the same assay buffer containing EGTA (final concentration of 1 mM) [or calcium chloride (final concentration of 2 mM) and calmodulin (40 units/ml)].
These fractions were collected and glycerol was added thereto to become 50%, and the mixture was stored at −20° C. These were used as a PDE5 enzyme solution for PDE assay.

[3] = target: T2, PDE7 (PDE7A) (Homo sapiens, UniProt Q13946); test: PDE assay, recombinant human PDE7A; format: biochemical; conditions: substrate about 4.8 nM [3H]-cAMP and 0.1 μM cAMP
T2 construct: His tag (hexahistidine, pcDNA4/HisMax) (N); made in house
T2 sequence (Q13946 1-456 isoform Q13946-2): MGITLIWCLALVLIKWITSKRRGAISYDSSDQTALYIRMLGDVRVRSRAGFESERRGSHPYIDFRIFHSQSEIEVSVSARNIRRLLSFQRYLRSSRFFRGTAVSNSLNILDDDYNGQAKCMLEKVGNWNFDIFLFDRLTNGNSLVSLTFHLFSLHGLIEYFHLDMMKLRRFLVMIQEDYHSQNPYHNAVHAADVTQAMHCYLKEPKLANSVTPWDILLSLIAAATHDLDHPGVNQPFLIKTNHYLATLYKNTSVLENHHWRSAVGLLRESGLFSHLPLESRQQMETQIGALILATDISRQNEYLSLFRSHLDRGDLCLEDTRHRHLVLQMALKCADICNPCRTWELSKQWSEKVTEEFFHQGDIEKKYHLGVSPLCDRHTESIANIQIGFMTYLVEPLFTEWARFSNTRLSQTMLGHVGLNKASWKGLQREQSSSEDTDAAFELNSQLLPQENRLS
Text: Based on the information of cDNA sequence of human PDE7A (Genbank/EMBL Accession No. NM002603), a cDNA encoding human PDE7A was cloned by PCR method, according to a method described in Sasaki et al. (Sasaki et al., Biochem. Biophys. Res. Commun., vol. 271, pp. 575-583, 2000). Further, based on the information of cDNA sequence of human PDE8A (Genbank/EMBL Accession No. AF388183), a cDNA encoding human PDE8A was cloned by PCR method, according to a method described in Gamanuma et al. (Gamanuma et al., Cell Signal, 2003, vol. 15, pp. 565-574). Further, a cDNA encoding human PDE11A was obtained, according to a method reported in Yuasa et al. (Yuasa et al., J. Biol. Chem., vol. 275, pp. 31469-31479, 2000). Using these cDNAs, recombinant proteins of human PDE7A, human PDE8A, and human PDE11A were prepared as follows.
DNA fragments comprising a cDNA encoding human PDE7A, human PDE8A or human PDE11A were linked to pcDNA4/HisMax (available from Invitrogen), to give a vector plasmid for expression of human proteins, with a histidine tag peptide (hexahistidine), added to the N-terminus. COS-7 cells were transfected with these vector plasmids, and the cells were cultured in Dulbecco's modified Eagle medium containing 10% bovine fetal serum for about 24 hours. […]

Measured: IC50

COc1ccc(-c2cc(N3CCCC3)nc(/C=C/c3nc(-n4ccnc4)c4ccccc4n3)n2)cc1OC [Compound A, 2-{(E)-2-[4-(1-imidazolyl)-quinazolin-2-yl]}ethenyl-4-(3,4-dimethoxy)phenyl-6-(pyrrolidin-1-yl)pyrimidine]
> 1 µM: all assays above
